Read-outs that look alike come from different tables or passages of the source.
Experiments:
[1] = Cytotoxicity plates without OC43 virus in HeLa cells; assay type: cell-based; details: human, HeLa cells (uninfected)
Description: The human beta-coronavirus OC43 was purchased from ATCC (Manassas, VA) and propagated using HCT-8 human colorectal epithelial cells (ATCC). HeLa human cervical epithelial cells (ATCC) were used as susceptible host cell lines and were cultured using EMEM media, supplemented with 10% fetal bovine serum (FBS), 1% (v/v) penicillin/streptomycin (P/S), 1% (v/v) HEPES and 1% (v/v) cellgro Glutagro™ supplement (all Corning, Manassas, VA) at 37° C. For the OC43 antiviral assay, 1.5×10^4 HeLa cells per well were plated in 100 μL complete media in white 96-well plates with clear bottoms at 37° C. for up to 24 h to facilitate attachment and allow cells to recover from seeding stresses. Next day, the cell culture medium was removed. Serially diluted compounds in 100 μL assay media (EMEM, 2% FBS, 1% P/S, 1% cellgro Glutagro™ supplement, 1% HEPES) were added to the cells and incubated for 4H at 37° C. in a humidified 5% CO2 incubator. 100 μL of OC43 virus stock was diluted to a concentration known to produce optimal cytopathic effect, inducing 80-90% reduction in cell viability. 96-well plates were incubated for 6 (HeLa) days at 33° C.; each plate contains uninfected control wells as well as virus-infected wells that were not treated with compound. Cytotoxicity plates without the addition of OC43 virus were carried out in parallel. At the end of the incubation period, 100 μL cell culture supernatant was replaced with 100 μL cell-titer-glo reagent (Promega, Madison, WI) and incubated for at least 10 min at rt prior to measuring luminescence. Luminescence was measured on a Perkin Elmer (Waltham, MA) Envision plate reader. Antiviral % inhibition was calculated as follows: [(Compound treated cells infected sample)−(no compound infected control)]/[(Uninfected control)−(no compound infected control)]*100; Using GraphPad (San Diego, CA) prism software version 8.3.1, the antiviral dose-response plot was generated as a sigmoidal fit, log(inhibitor) vs response-variable slope (four parameters) model and the EC50 was calculated which is the predicted compound concentration corresponding to a 50% inhibition of the viral cytopathic effect.

SARS-Cov-2 3CLpro = molecular target: T1, SARS-Cov-2 3CLpro (Severe acute respiratory syndrome coronavirus 2, UniProt P0DTD1); assay: SARS-Cov-2 3CLpro and HRV3C duplex assay (SAMDI-MS): 3CLpro; assay type: biochemical; details: 3CLpro, duplex assay, 30 mins preincubation; class symbols; read-out: SARS-Cov-2 IC50
T1 construct: SARS-Cov-2 3CLpro and HRV3C Duplex Assay

HRV3C = molecular target: T2, HRV3C (Human rhinovirus 14, UniProt P03303); assay: biochemical; details: read-out: HRV IC50
T2 construct: SARS-Cov-2 3CLpro and HRV3C Duplex Assay
T2 sequence (P03303 1538-1719): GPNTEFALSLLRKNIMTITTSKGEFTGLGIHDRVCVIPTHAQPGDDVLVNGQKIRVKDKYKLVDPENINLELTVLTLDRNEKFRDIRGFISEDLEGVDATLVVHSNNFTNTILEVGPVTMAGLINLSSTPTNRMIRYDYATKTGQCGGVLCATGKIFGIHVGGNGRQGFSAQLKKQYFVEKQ

[2] = tested on: human beta-coronavirus OC43; assay: OC43 coronavirus assay in HeLa cells (cytopathic effect, cell-titer-glo); assay type: cell-based
[3] = tested on: SARS-CoV-2-GHB-03021/2020; assay: microbe, parasite or virus in culture; assay type: cell-based; details: Severe acute respiratory syndrome coronavirus 2, Vero C1008, 96 h; read-out: VeroE6 + CP (EC50)
human cathepsin L = molecular target: T3, human cathepsin L (Homo sapiens, UniProt P07711); assay: Cathepsin L assay (Z-FR-AMC fluorescence); assay type: biochemical; details: 10 pM human cathepsin L, 30 mins preincubation; class symbols
T3 construct: purchased R&D Systems
T3 sequence (P07711 114-333): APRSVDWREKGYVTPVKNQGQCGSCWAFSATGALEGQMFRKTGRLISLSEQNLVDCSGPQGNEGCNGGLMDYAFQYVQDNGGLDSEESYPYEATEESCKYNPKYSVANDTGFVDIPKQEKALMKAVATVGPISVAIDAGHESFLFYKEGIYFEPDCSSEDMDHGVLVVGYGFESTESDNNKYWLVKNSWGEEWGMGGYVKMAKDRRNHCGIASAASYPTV
Description: For the cathepsin L assay, 10 pM of human cathepsin L (R&D Systems; Minneapolis, MN) was preincubated for 30 mins with test compounds. Reactions were initiated by the addition of a peptide substrate Z-FR-AMC (final concentration 2 μM, Anaspec; Fremont, CA). Fluorescence was measured at 2-minute intervals for 30 mins using a 355/460 excitation/emission filter module on an Envision plate reader (Perkin Elmer; Waltham, MA). The IC50 values were calculated for each assay by fitting the curves using a four-parameter equation in GraphPad Prism.

[4] = Betacoronavirus 1, 144 h, OC43 in HeLa cells, 6 days at 33° C., class symbols, read-out: EC50
[5] = HRV3C, duplex assay, 30 mins preincubation, class symbols

Structure (SMILES) | CC50 at 6 days ([1]; class symbols) [µM] | IC50 (SARS-Cov-2 3CLpro) [µM] | IC50 (HRV3C) [µM] | EC50 [2, 4] [µM] | EC50 [3] [µM] | IC50 (human cathepsin L) [µM] | CC50 at 6 days ([1]; numeric bound, unit inferred) [µM] | IC50 (HRV3C; [5]) [µM] | EC50 ([2]; Betacoronavirus 1, OC43, HeLa) [µM]
CC(C)(C)[C@H](NC(=O)C(F)(F)F)C(=O)N1CCC2(CC2)C[C@H]1C(=O)N[C@H](C#N)C[C@@H]1CCNC1=O [Compound 35, (S)—N—((S)-1-cyano-2-((S)-2-oxopyrrolidin-3-yl)ethyl)-6-((S)-3,3-dimethyl-2-(2,2,2-trifluoroacetamido)butanoyl)-6-azaspiro[2.5]octane-5-carboxamide] | ≥ 100 | < 0.02 | > 10 | 0.1 to 1 | < 1 | ≥ 10 |  |  | 
COc1cccc(-c2csc(C(=O)N3CCC4(CC4)C[C@H]3C(=O)N[C@@H](C[C@@H]3CCNC3=O)C(=O)C(=O)NC3CC3)n2)c1 [Compound 36] |  | 0.2 to 2 |  | 0.1 to 1 | 1 to 10 | ≥ 10 | > 100 | 2 to 20 | 
COc1ccc(-c2csc(C(=O)N3CCC4(CC4)C[C@H]3C(=O)N[C@@H](C[C@@H]3CCNC3=O)C(=O)C(=O)NC3CC3)n2)cc1 [Compound 37] |  | 0.2 to 2 |  | 0.1 to 1 | 1 to 10 | ≥ 10 | > 100 | 0.2 to 2 | 
Cc1sc(C(=O)N2CCC3(CC3)C[C@H]2C(=O)N[C@@H](C[C@@H]2CCNC2=O)C(=O)C(=O)NC2CC2)nc1-c1ccccc1 [Compound 38] |  | 0.2 to 2 |  | 0.1 to 1 | 1 to 10 | ≥ 10 | > 100 | 2 to 20 | 
CC(C)(C)c1csc(C(=O)N2CCC3(CC3)C[C@H]2C(=O)N[C@@H](C[C@@H]2CCNC2=O)C(=O)C(=O)NC2CC2)n1 [Compound 39] |  | 0.2 to 2 |  | 0.1 to 1 | 1 to 10 | 1 to 10 | > 100 | 2 to 20 | 
O=C(NC1CC1)C(=O)[C@H](C[C@@H]1CCNC1=O)NC(=O)[C@@H]1CC2(CCN1C(=O)c1csc(-c3ccccc3)n1)CC2 [Compound 40] |  | 0.2 to 2 |  | 0.1 to 1 | 1 to 10 | ≥ 10 | > 100 | 0.2 to 2 | 
O=C(NC1CC1)C(=O)[C@H](C[C@@H]1CCNC1=O)NC(=O)[C@@H]1CC2(CCN1C(=O)c1cccc(-c3ccccc3)n1)CC2 [Compound 41] |  | 0.2 to 2 |  | 0.1 to 1 | 1 to 10 | ≥ 10 | > 100 | 0.2 to 2 | 
COc1ccccc1-c1csc(C(=O)N2CCC3(CC3)C[C@H]2C(=O)N[C@@H](C[C@@H]2CCNC2=O)C(=O)C(=O)NC2CC2)n1 [Compound 42] |  | 0.2 to 2 | > 10 | 0.1 to 1 | 1 to 10 | ≥ 10 | > 100 |  | 
O=C(NC1CC1)C(=O)[C@H](C[C@@H]1CCNC1=O)NC(=O)[C@@H]1CC2(CCN1C(=O)c1nc(-c3ccccc3Cl)cs1)CC2 [Compound 43] |  | 0.2 to 2 | > 10 | 0.1 to 1 | 1 to 10 | ≥ 10 | > 100 |  | 
O=C(NC1CC1)C(=O)[C@H](C[C@@H]1CCNC1=O)NC(=O)[C@@H]1CC2(CCN1C(=O)c1nc(-c3ccc(Cl)cc3)cs1)CC2 [Compound 44] | 10 to 100 | 0.2 to 2 | > 10 | 0.1 to 1 | 1 to 10 | ≥ 10 |  |  | 
O=C(NC1CC1)C(=O)[C@H](C[C@@H]1CCNC1=O)NC(=O)[C@@H]1CC2(CCN1C(=O)c1csc(-c3cccc(Cl)c3)n1)CC2 [Compound 45] | 10 to 100 | 0.02 to 0.2 |  | 0.1 to 1 | < 1 | ≥ 10 |  | 2 to 20 | 
O=C(NC1CC1)C(=O)[C@H](C[C@@H]1CCNC1=O)NC(=O)[C@@H]1CC2(CCN1C(=O)c1nc(C3CCCCC3)cs1)CC2 [Compound 46] |  | 0.2 to 2 | > 10 | 0.1 to 1 | 1 to 10 | 1 to 10 | > 100 |  | 
O=C(NC1CC1)C(=O)[C@H](C[C@@H]1CCNC1=O)NC(=O)[C@@H]1CC2(CCN1C(=O)[C@@H]1C[C@@H]1c1ccccc1)CC2 [Compound 47] |  | 2 to 20 |  |  | > 50 | ≥ 10 | > 100 | 0.2 to 2 | > 10
O=C(NC1CC1)C(=O)[C@H](C[C@@H]1CCNC1=O)NC(=O)[C@@H]1CC2(CCN1C(=O)[C@@H]1C[C@H]1c1ccccc1)CC2 [Compound 48] |  | 0.02 to 0.2 |  | 0.1 to 1 | 1 to 10 | 1 to 10 | > 100 | 0.2 to 2 | 
O=C(NC1CC1)C(=O)C(C[C@@H]1CCNC1=O)NC(=O)[C@@H]1[C@@H]2C[C@@H](CC23CC3)N1C(=O)c1ncc(-c2ccccc2)s1 (stereo partly drawn) [Compound 49, N-cyclopropyl-2-oxo-4-[(3S)-2-oxopyrrolidin-3-yl]-3-[(1R,4S,6S)-5-(5-phenyl-1,3-thiazole-2-carbonyl)-5-azaspiro[bicyclo[2.2.1]heptane-2,1′-cyclopropan]-6-ylformamido]butanamide] |  | 0.02 to 0.2 |  | 0.1 to 1 | < 1 | ≥ 10 | > 100 | 2 to 20 | 
CC(C)(C)[C@H](NC(=O)C(F)(F)F)C(=O)N1[C@H]2C[C@@H]([C@H]1C(=O)N[C@H](C#N)C[C@@H]1CCNC1=O)C1(CC1)C2 [Compound 50, (1R,4S,6S)—N-[(1S)-1-cyano-2-[(3S)-2-oxopyrrolidin-3-yl]ethyl]-5-[(2S)-3,3-dimethyl-2-(2,2,2-trifluoroacetamido)butanoyl]-5-azaspiro[bicyclo[2.2.1]heptane-2,1′-cyclopropane]-6-carboxamide] |  | < 0.02 | > 10 | < 0.1 | < 1 | ≥ 10 | > 100 |  | 
CC(C)(C)[C@H](NC(=O)C(F)(F)F)C(=O)N1CCC2(C[C@H]1C(=O)N[C@H](C#N)C[C@@H]1CCNC1=O)CC(F)(F)C2 [Compound 51, (S)—N—((S)-1-cyano-2-((S)-2-oxopyrrolidin-3-yl)ethyl)-7-((S)-3,3-dimethyl-2-(2,2,2-trifluoroacetamido)butanoyl)-2,2-difluoro-7-azaspiro[3.5]nonane-6-carboxamide] |  | 0.2 to 2 | > 10 | 1 to 10 | 1 to 10 | ≥ 10 | > 100 |  | 

From patent publication US12065428B2, “Anti-viral compounds” (Aligos Therapeutics, Inc., priority 2021, dated 2024)
